# From patent US20240172750A1, “5-Fluoro-4-Imino-3-Methyl-1-Tosyl-3,4-Dihydropyrimidin-2(1H)-One for Controlling Plant Diseases” (Adama Makhteshim Ltd., priority 2021, published 2024)
# Legend:
# [1] = test system: Pseudoperonospora cubensis (downy mildew); experiment: Glasshouse trial, downy mildew in cucumber, foliar treatment; format: in vivo; details: cucumber (Bosco); 250 OD at 100, 125, 150, 200 g ai/ha, 3 applications; 21 DA-C
# Procedure: The trial was carried out in a commercial glasshouse in Vittoria (RG)—Sicily region (Southern Italy) to evaluate the efficacy against Pseudoperonospora cubensis (downy mildew) and the selectivity on cucumber (Bosco variety) of ADF-16 250 OD at 100, 125, 150 and 200 g ai/ha in comparison to AIRONE PIU at 630 g ai/ha and EQUATION PRO at 21 g ai/ha.
# Each plot (2 m×5 m, 2 rows per plot) consisted of at least 10 plants and 4 replicates per treatment were carried out. The soil used for the trial was a mix of peat and perlite. 3 applications were carried out as follows: A: early curative (disease symptoms lower than 5%), B: 7-10 days from A and C: 7-10 days from B. The corresponding treatments dates were: 16 Nov. 2020 (BBCH 64), 23 Nov. 2020 (BBCH 65) and 30th of November (BBCH 67)
# The application was carried out with a backpack sprayer OleomacSP126 and a water volume of 1000 L/ha.
# Phytotoxicity, if any, was assessed 7, 14 and 21 days form each application and starting from the first symptoms the percentage of affected leaf area (% severity) as well as the percentage of affected leaves (% incidence) was measured.
# [2] = test system: Erysiphe betae (powdery mildew); experiment: Greenhouse screening test, powdery mildew in sugar beet; format: in vivo; details: starting from 100 g ai/ha, applied one day after inoculation
# Procedure: The screening test was conducted in a greenhouse in Gerichshain, Kupferstraße 6, Germany. The test was performed from application until 28 days after treatment. The efficacy and phytotoxic symptoms of compound of formula I to the plant species sugar beet were examined with a water control under greenhouse conditions. During the whole trial period the plants were stored at 12.6° C.-24.2° C. and 41.9-78.2% relative humidity.
# The inoculation of the leaves was carried out. A spore suspension was produced. Infested leaves of sugar beets from a field were put in water for some minutes to get a spore suspension. For better homogeneity Tween 20 (Polysorbat) was added to the spore solution (0.1%). Two diseases were observed on the sampled leaves, Uromyces betae and Erysiphe betae, just E. betae infested the plants in this screening trial. […]
# The application was carried out once one day after inoculation in an automatic application cabin at a spray volume equivalent to 200 L/ha. During the observation period of 28 days after treatment (DAT), the plants were assessed weekly for growth stage, leaf diseases and phytotoxicity. […]
# [3] = test system: Colletotrichum dematium var. truncatum; experiment: Pot trial, Colletotrichum dematium var. truncatum on soybean; format: in vivo; details: 50-200 g ai/ha
# Procedure: (§2) The inoculation of Corynespora cassiicola and Colletotrichum dematium var. truncatum is done with infected leaves from the field few days after the application.
# (§3) To test for fungicidal control against the two necrotrophic diseases, the soybean plants, grown in pots, are sprayed at V2 with each of the above treatments. 5 pots with 3 soybean plants each are considered, each treatment counts for 4 replicates.
# (§4) Between 14 and 21 days from the inoculation the severity (%) of the infection is assessed.
# Rat = experiment: Ecotoxicity: mammals, acute; format: in vivo
# Excerpt: (§1) The ecotoxicity of flumetylsulforim was investigated in numerous studies in accordance with the strict requirements for the approval of active substances in the EU.
# Rabbit = experiment: Ecotoxicity: mammals, long-term; format: in vivo
# Excerpt: as §1
# Ecotoxicity: fish, acute = details: in vivo, Rainbow trout
# Excerpt: as §1
# Rainbow trout = experiment: Ecotoxicity: fish, long-term; format: in vivo
# Excerpt: as §1
# [4] = Ecotoxicity: aquatic invertebrates, acute; format: in vivo; details: in vivo, Daphnia magna
# Excerpt: as §1
# Daphnia magna [5] = experiment: Ecotoxicity: aquatic invertebrates, acute; format: in vivo; details: wheats and barley at 2 × 100 g/ha
# Excerpt: as §1
# Daphnia magna [6] = experiment: Ecotoxicity: aquatic invertebrates, long-term; format: in vivo
# Excerpt: as §1
# Parasitoid wasp = experiment: Ecotoxicity: non-target arthropods, reproduction; format: in vivo
# Excerpt: as §1
# Predatory mite = experiment: Ecotoxicity: non-target arthropods, reproduction; format: in vivo; details: wheats and barley at 2 × 100 g/ha
# Excerpt: as §1
# Eisenia fetida = experiment: Ecotoxicity: earthworms, long-term; format: in vivo
# Excerpt: as §1
# [7] = test system: Soil microbial activity (Nitrogen activity); experiment: Ecotoxicity: soil microbial activity, long-term
# Excerpt: as §1
# Carrot = experiment: Non-target terrestrial plants, seedling emergence; format: in vivo
# Excerpt: as §1
# Common oat = experiment: Non-target terrestrial plants, seedling emergence; format: in vivo
# Excerpt: as §1
# Cucumber = experiment: Non-target terrestrial plants, seedling emergence; format: in vivo
# Excerpt: as §1
# Oil seed rape = experiment: Non-target terrestrial plants, seedling emergence; format: in vivo
# Excerpt: as §1
# Onion = experiment: Non-target terrestrial plants, seedling emergence; format: in vivo
# Excerpt: as §1
# Ryegrass = experiment: Non-target terrestrial plants, seedling emergence; format: in vivo
# Excerpt: as §1
# Soybean = experiment: Non-target terrestrial plants, seedling emergence; format: in vivo
# Excerpt: as §1
# Sugar beet = experiment: Non-target terrestrial plants, seedling emergence; format: in vivo
# Excerpt: as §1
# Sunflower = experiment: Non-target terrestrial plants, seedling emergence; format: in vivo
# Excerpt: as §1
# [8] = wheats and barley at 2 × 100 g/ha
# Procedure for Cercospora kikushi: The trial is carried out in open field and no artificial inoculation is performed.
# To test for fungicidal control against the late season disease, each plot (3 m×5 m) is sprayed with one of the treatments from Table 17. Each treatment is made of 4 replicates.
# Three applications are made, the first approximately 14 days before flowering followed by a second one at R1 and the third at R1+14 days. A fourth application is considered based on the development of the disease.
# Assessments are done before all sprays and at 7, 14 and 21 days after the last spray. The whole plot is assessed considering the 3 plant parts (bottom, mid and upper). The final grade is the mean of the 3 scores (bottom, mid and upper).
# The whole plot is assessed for defoliation. The defoliation assessment takes place at R6-R7 stage when the untreated control reaches 80 to 90% defoliation. The harvest assessment is done from the middle of the plot covering at least 8 m 2/plot.
# Procedure for Corynespora cassiicola: as §2, §3, §4
# Procedure for Ramularia areola: The objective of the trial is to assess the fungicidal effect of ADF-16 against Ramularia areola on cotton, compared to an untreated control and a reference product.
# ADF-16 is tested at different doses, namely at 50, 100, 150 and 200 g ai/ha as depicted in the table below.
# Ramularia areola is artificially inoculated by spraying the conidia on the plants, previously sprayed with the fungicide.
# To test for fungicidal control of Ramularia areola, the cotton plants, grown in pots, are sprayed at first true leaf fully open with each of the above treatments. 5 pots with 3 cotton plants each are considered, each treatment counts for 4 replicates.
# Between 25 and 30 days from the inoculation the severity (%) of the infection is assessed.
compound,measurement,setting,value
"Cc1ccc(S(=O)(=O)n2cc(F)c(=N)n(C)c2=O)cc1 [compound of formula I, 5-fluoro-4-imino-3-methyl-1-tosyl-3,4-dihydropyrimidin-2(1H)-one]",control of the disease (downy mildew),[1],significant control of the disease
same,reduction of the affected leaf area compared to the UTC,[2],> 60%
same,control of Colletotrichum dematium var. truncatum,[3],effectively controls
same,LD50,Rat,LD50 > 2000 mg/kg bw
same,Risk at current use pattern,Rat; [8],Acceptable
same,NOED,Rabbit,NOED = 15 mg/kg bw/d
same,Risk at current use pattern,Rabbit; [8],Acceptable
same,LC50,"Ecotoxicity: fish, acute",5.41 µg/mL
same,NOEC,Rainbow trout,NOEC = 0.128 mg/L
same,Risk at current use pattern,Rainbow trout; [8],Acceptable
same,EC50,[4],> 10 µg/mL
same,Risk at current use pattern,Daphnia magna [5],Acceptable
same,NOEC,Daphnia magna [6],NOEC = 0.32 mg/L
same,Risk at current use pattern,Daphnia magna [6]; [8],Acceptable
same,LR50,Parasitoid wasp,LR50 > 189 g/ha
same,Risk at current use pattern,Parasitoid wasp; [8],Acceptable
same,Risk at current use pattern,Predatory mite,Acceptable
same,NOEC,Eisenia fetida,NOEC = 309 mg/kg dws
same,Risk at current use pattern,Eisenia fetida; [8],Acceptable
same,Ecotoxicity endpoint (nitrogen activity),[7]; soil microbial activity,>10.3 mg/kg dws
same,Risk at current use pattern,"[7]; soil microbial nitrogen activity, wheats and barley at 2 × 100 g/ha",Acceptable
same,ER50,Carrot,ER50 > 189 g/ha
same,Risk at current use pattern,Carrot; [8],Acceptable
same,ER50,Common oat,ER50 > 189 g/ha
same,Risk at current use pattern,Common oat; [8],Acceptable
same,ER50,Cucumber,ER50 > 189 g/ha
same,Risk at current use pattern,Cucumber; [8],Acceptable
same,ER50,Oil seed rape,ER50 > 189 g/ha
same,Risk at current use pattern,Oil seed rape; [8],Acceptable
same,ER50,Onion,ER50 > 189 g/ha
same,Risk at current use pattern,Onion; [8],Acceptable
same,ER50,Ryegrass,ER50 > 189 g/ha
same,Risk at current use pattern,Ryegrass; [8],Acceptable
same,ER50,Soybean,ER50 > 189 g/ha
same,Risk at current use pattern,Soybean; [8],Acceptable
same,ER50,Sugar beet,ER50 > 189 g/ha
same,Risk at current use pattern,Sugar beet; [8],Acceptable
same,ER50,Sunflower,ER50 > 189 g/ha
same,Risk at current use pattern,Sunflower; [8],Acceptable
same,control of Ramularia areola,"Ramularia areola; cotton, 50-200 g ai/ha",effectively controls
same,phytotoxicity,Ramularia areola; in vivo,no significant phytotoxicity
same,phytotoxicity,Corynespora cassiicola; in vivo,no significant phytotoxicity
same,control of Corynespora cassiicola,"Corynespora cassiicola; soybean, 50-200 g ai/ha",effectively controls
same,phytotoxicity,Cercospora kikushi; in vivo,no significant phytotoxicity
same,control of Cercospora kikushi,"Cercospora kikushi; soybean, 50, 100 and 200 g ai/ha",effectively controls
